# Experimental data taken from patent publication US20210244700A1, “COMPOSITIONS AND METHODS FOR PREVENTING AND/OR REDUCING ISCHEMIA AFTER SURGICAL INCISIONS” (Duke University, priority 2018, published 2021).
# “Also recorded” adds a separate entry of the source.
# Experiments:
# [1] = cited from earlier work
# [2] = system: ischemic skin flap; test: Skin flap necrosis, rat ischemic dorsal pedicle skin flap (McFarlane) model; format: in vivo; conditions: for mean percentage of skin flap necrosis: postoperative day 3; for mean percentage of skin flap necrosis / flap necrosis: intraperitoneal + topical; for mean percentage of skin flap necrosis / postsurgical flap necrosis percentage: control 41.3±3.8 percent; for flap necrosis: postoperative day 7; for flap necrosis / percentage of flap necrosis: control 50.9±3.9 percent; for postsurgical flap necrosis percentage: postsurgical day 3; for percentage of flap necrosis: postsurgical day 7
# Method: (§1) After institutional animal care and use committee approval, hairless male rats (8 weeks old; 250 g) were obtained from Charles River Laboratories (Wilmington, Mass.). Six experimental groups of rats (n=24) and three control groups (n=12) underwent skin flap surgery by surgeons blinded to the experimental treatment arm. First, to assess both systemic and topical administration together, four experimental groups (n=16) were administered dimethyloxalylglycine (Cayman Chemical, Ann Arbor, Mich.) both intraperitoneally and topically for a total dose of 6 mg/kg/day (n=4), 12 mg/kg/day (n=4), 24 mg/kg/day (n=4), or 48 mg/kg/day (n=4). Next, to assess topical versus intraperitoneal administration, two experimental groups were administered dimethyloxalylglycine at 48 mg/kg/day either topically (n=4) or intraperitoneally (n=4). Intraperitoneal administration consisted of dimethyloxalylglycine suspension in phosphate-buffered saline (pH 7.4) to a maximum dosage of 10 ml/kg. Topical delivery consisted of administration of dimethyloxalylglycine using dimethylsulfoxide as a delivery vehicle at a maximum dosage of 9 ml/kg undiluted solution. Topical application was performed in the outline of the proposed skin flap. To replicate a short therapeutic course before and after flap surgery, the study was designed to include a 14-day treatment period, with dimethyloxalylglycine administered 7 days before and 7 days after flap surgery (FIG. 1). Because prolyl hydroxylase inhibitors target the HIF pathway […], this design was chosen to allow time for downstream neovascularization.
# (§2) Throughout the same 14-day treatment course, control groups were administered an equal volume of intraperitoneal phosphate-buffered saline (pH 7.4) and topical dimethylsulfoxide. A dorsal pedicle skin flap based on the McFarlane model measuring 3×6 cm was elevated in the areolar tissue plane deep to the panniculus carnosus layer on each rat on treatment day 7. Consistency in flap design was ensured using a model outline for size and shape and positioning according to bony landmarks. After flap elevation, the flap was sutured in place with 4-0 polypropylene. Surgeons were blinded intraoperatively to treatment arm with a random numbers scheme. Seven days after surgery, the animals were euthanized and histologic analysis performed in postmortem tissue specimens.
# (§3) Photographic measurements of necrosis were taken on postoperative days 1, 3, and 7. Flap necrosis was determined grossly by the presence of cyanosis and congestion on postoperative day 1 (FIG. 2) and the presence of scab formation and loss of skin elasticity on subsequent postsurgical days. At 7 days, tissue perfusion was assessed by means of intraperitoneal injection of 1 ml of sodium fluorescein 10% at 60 mg/kg and fluorescent imaging with an in vivo imaging system (IVIS Kinetic; PerkinElmer, Waltham, Mass.) using LIVING IMAGE® software with a 465-nm excitation and green fluorescent protein emission filter. Necrotic area was calculated using ImageJ Software (National Institutes of Health, Bethesda, Md.). Digital photographs and IVIS images were evaluated and analyzed by an investigator blinded to the assigned treatment group.
# [3] = system: ischemic skin flap; test: Skin flap tissue perfusion, sodium fluorescein injection and IVIS imaging; format: in vivo, rat; conditions: postoperative day 7; for percentage of unperfused tissue: intraperitoneal + topical, control 39.9±3.8 percent; for percentage of unperfused tissue / percentage of overall flap perfusion: p<0.001; for percentage of overall flap perfusion: control 31.4±2.3 percent
# Method: as §1, §2, §3
# [4] = system: HIF-1α; test: HIF-1α immunohistochemistry of skin flap epidermis; format: in vivo, rat; conditions: 4 cm from the proximal flap, postoperative day 7, control 3.5±0.6, p<0.001
# Method: For analysis of HIF-1α, sections were taken 4 cm from the proximal flap and incubated with anti-rabbit HIF-1α antibody (Novus Biologicals, Littleton, Colo.) at a dilution of 1:1600. A Discovery Ultra immunohistochemical system (Ventana Medical Systems, Oro Valley, Ariz.) was used for staining with OmniMap anti-Rb horseradish peroxidase and red chromogen was used for detection. HIF-1α-positive nuclei in the epidermis were counted by light microscopy (20×) in five fields. All immunohistochemical measurements were performed by a blinded investigator.
# [5] = system: CD31+ vessels; test: Neovascularization: CD31 immunohistochemistry and hematoxylin and eosin histology of skin flap; format: in vivo, rat
# Method: (§4) Tissues from the proximal and distal parts of the flaps were collected on postoperative day 7 and were fixed in 10% paraformaldehyde and embedded in paraffin, with representative sections depicted in FIG. 1. For histologic evaluation and CD31 immunohistochemical staining, sections taken 6 cm from the proximal flap were deparaffinized in xylene and rehydrated in a series of ethanol washes. For detection of CD31+ cells, sections were incubated with anti-mouse CD31 antibody (BD Pharmingen, San Jose, Calif.) at a dilution of 1:200 at 4° C. overnight. For analysis of angiogenesis, the CD31+ vessels in five fields were counted by light microscopy (20×) for each group. A TdT In Situ Cell Death Detection Kit (R&D Systems, Minneapolis, Minn.) was used to compare apoptotic protein expression in sections taken 4 cm from the proximal flap. The ratio of terminal deoxynucleotidyl transferase-mediated dUDP end-labeling-positive cells was calculated according to the manufacturer's protocol. Terminal deoxynucleotidyl transferase-mediated dUDP end-labeling-positive cells were also counted by light microscopy (20×) in 10 fields.
# [6] = system: VEGF; test: Tissue VEGF concentration by enzyme-linked immunosorbent assay; format: in vivo, rat; conditions: skin flap 6 cm from the proximal flap, postoperative day 7; control 22.0±1.7 pg/ml; p=0.007
# Method: Tissue samples were harvested on postoperative day 7 and dissected on ice, submerged in liquid nitrogen, then stored at −80° C. Tissue samples from tissue sections taken at the same distance 6 cm from the proximal flap were then homogenized in lysis buffer containing 100 mM Tris hydrochloride (pH 7.4), 150 mmol sodium chloride, 1% Triton X-100, 0.5% sodium deoxycholate, and 1 μg/ml protease inhibitor cocktail (Sigma Aldrich, St. Louis, Mo.). The samples were centrifuged to pellet the debris, and the supernatants were analyzed following the manufacturer's protocol for a rat tissue extract VEGF enzyme-linked immunosorbent assay kit (Sigma-Aldrich).
# [7] = system: apoptotic cells; test: Apoptosis by terminal deoxynucleotidyl transferase-mediated dUDP end-labeling staining of skin flap; format: in vivo, rat; conditions: 20× magnification, 4 cm from the proximal flap; control 15.1±6.2; p=0.045
# Method: as §4
# [8] = Complete blood counts after 14 total days of treatment; format: in vivo, rat
# Method: (§5) The animals were treated according to institutional animal care and use committee guidelines. Animals were double-housed for the preoperative period, then single-housed in the immediate postoperative period to protect flap integrity. Isoflurane anesthesia was used for all operations and daily intraperitoneal injections. Elizabethan collars were placed on rats to prevent ingestion of the topical solution after application. No dressing was used over the topical application site due to absorption. Animals were observed daily for side effects, including wound infections or dehiscence. Weights were taken on the day of surgery and on postoperative day 7. Blood samples were obtained on postoperative day 7 immediately before the animals were euthanized by means of cardiac puncture to determine hemoglobin, hematocrit, white blood cell count, and platelet count. Animals were euthanized by means of intracardiac potassium chloride on postoperative day 7, and gross necropsies were performed by a veterinarian to assess macroscopic organ changes after 14 total days of treatment.
# [9] = Side effect monitoring, weights and gross necropsy; format: in vivo, rat
# Method: as §5
compound,measurement,setting,value
O=C(O)CNC(=O)c1ncc(-c2cccc(Cl)c2)cc1O [Vadadustat],most common adverse effect in clinical trials,[1],hypertension resulting from polycythemia
COC(=O)CNC(=O)C(=O)OC [dimethyloxalylglycine],cyanosis of flaps,"[2]; postoperative day 1, treated versus control flaps (FIG. 2: 24 mg/kg/day intraperitoneal and topical)",Decreased cyanosis
same,mean percentage of skin flap necrosis,"[2]; total 6 mg/kg/day, p=0.13",30.2±3.9%
same,mean percentage of skin flap necrosis,"[2]; total 12 mg/kg/day, p=0.001",12.3±4.5%
same,mean percentage of skin flap necrosis,"[2]; total 24 mg/kg/day, p=0.008",20.3±1.8%
same,mean percentage of skin flap necrosis,"[2]; total 48 mg/kg/day, p<0.001",7.7±3.1%
same,flap necrosis,"[2]; total 6 mg/kg/day, p=0.004",26.7±1.3%
same,flap necrosis,"[2]; total 12 mg/kg/day, p=0.002",20.6±7.0%
same,flap necrosis,"[2]; total 24 mg/kg/day, p=0.003",25.0±2.5%
same,flap necrosis,"[2]; total 48 mg/kg/day, p<0.001",11.6±4.4%
same,postsurgical flap necrosis percentage,"[2]; intraperitoneal alone 48 mg/kg/day, p=0.002",14.7±2.6%
same,postsurgical flap necrosis percentage,"[2]; topical alone 48 mg/kg/day, p=0.005",18.9±2.8%
same,percentage of flap necrosis,"[2]; intraperitoneal alone 48 mg/kg/day, p<0.001",16.3±5.2%
same,percentage of flap necrosis,"[2]; topical alone 48 mg/kg/day, p=0.003",25.7±2.3%
same,increase in flap viability,[2]; topical application and intraperitoneal administration,nearly threefold increase
same,dose dependence of tissue perfusion,[3]; 6 to 48 mg/kg/day,higher dimethyloxalylglycine doses leading to increased tissue perfusion
same,percentage of unperfused tissue,[3]; total 6 mg/kg/day,11.4±1.7%
same,percentage of unperfused tissue,[3]; total 12 mg/kg/day,9.4±4.2%
same,percentage of unperfused tissue,[3]; total 24 mg/kg/day,4.7±2.6%
same,percentage of unperfused tissue,[3]; total 48 mg/kg/day,1.4±0.9%
same,percentage of overall flap perfusion,[3]; intraperitoneal alone 48 mg/kg/day,7.2±3.8%
same,percentage of overall flap perfusion,[3]; topical alone 48 mg/kg/day,6.9±1.3%
same,number of HIF-1α-stained nuclei per high-power field,[4],21.0±2.7
same,number of CD31-labeled vessels,"[5]; per high-power field at 20×, 6 cm from the proximal flap, after 14 total days of treatment, control 8.8±1.2, p=0.004",18.8±2.2
same,neovascularization on hematoxylin and eosin-stained tissue,"[5]; skin flap after 14 total days of treatment, versus controls",greater neovascularization
same,tissue VEGF concentration,[6],37.1 ± 3.4 pg/mL
same,number of apoptotic cells per high-power field,[7],1.7±0.6
same,mean hemoglobin,"[8]; control 15.1±0.5 g/dl, p=0.3",14.2 ± 1.0 g/dL
same,mean white blood cell count,"[8]; control 18.2±5.6×10^3/p1, p=0.08",10.4±1.6 ×10^3/p1
same,hematocrit,"[8]; control 43.3±1.1 percent, p=0.2",40.8±2.6%
same,platelet count,"[8]; control 1446±218×10^9/liter, p=0.8",1510±247 ×10^9/liter
same,gross necropsy findings,[9]; after 14 total days of treatment,"no evidence of cardiovascular changes, splenomegaly, or polycythemia; also recorded: no macroscopic organ changes were observed"
same,weights versus control animals,"[9]; experimental day 1 or day 14, all doses",no differences
same,"wound infections, dehiscence, behavioral changes in feeding or activity","[9]; rat, in vivo","No wound infections, dehiscence, or behavioral changes in feeding or activity were observed"
O=c1c(-n2ccnn2)c[nH]n1-c1cc(N2CCOCC2)ncn1 [Molidastat],most common adverse effect in clinical trials,[1],hypertension resulting from polycythemia
